Laboratory results as given in the supplement of paper PMC10307832.

Key:
Test in all cases: relative viability (nuclei count vs DMSO), 5 days (fraction); higher = more cells survive
Wnt-C59 + Pemetrexed = compound: CC1=NC=CC(=C1)C2=CC=C(C=C2)CC(=O)NC3=CC=C(C=C3)C4=CN=CC=C4 [Wnt-C59] + Nc1nc2[nH]cc(CCc3ccc(C(=O)N[C@@H](CCC(=O)O)C(=O)O)cc3)c2c(=O)[nH]1 [Pemetrexed] (partner 0.2 µM)
How it was run: (§1)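 Relative viability is defined as nuclei in treated wells over nuclei in vehicle wells. Duplicate plates were run and medians reported. Lung cancer cell lines in 1536-well plates were dosed by pin tool one day after seeding, with one drug or with a fixed anchor-drug dose plus five library-drug doses (not always all listed) in √10 steps, and nuclei were counted after 5 days.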

Wnt-C59 + Navitoclax = compound: CC1=NC=CC(=C1)C2=CC=C(C=C2)CC(=O)NC3=CC=C(C=C3)C4=CN=CC=C4 [Wnt-C59] + CC1(C)CCC(c2ccc(Cl)cc2)=C(CN2CCN(c3ccc(C(=O)NS(=O)(=O)c4ccc(N[C@H](CCN5CCOCC5)CSc5ccccc5)c(S(=O)(=O)C(F)(F)F)c4)cc3)CC2)C1 [Navitoclax] (partner 0.5 µM)
How it was run: as §1

Lapatinib + Alpelisib = compound: CS(=O)(=O)CCNCc1ccc(-c2ccc3ncnc(Nc4ccc(OCc5cccc(F)c5)c(Cl)c4)c3c2)o1 [Lapatinib] + Cc1nc(NC(=O)N2CCC[C@H]2C(N)=O)sc1-c1ccnc(C(C)(C)C(F)(F)F)c1 [Alpelisib] (partner 2 µM)
How it was run: as §1

Lapatinib + Luminespib = compound: CS(=O)(=O)CCNCc1ccc(-c2ccc3ncnc(Nc4ccc(OCc5cccc(F)c5)c(Cl)c4)c3c2)o1 [Lapatinib] + CCNC(=O)c1noc(-c2cc(C(C)C)c(O)cc2O)c1-c1ccc(CN2CCOCC2)cc1 [Luminespib] (partner 0.01 µM)
How it was run: as §1

Q: What does the source list for UMC-11?
A: relative viability (Wnt-C59 + Pemetrexed; first compound 0.001 µM): 0.756; relative viability (Wnt-C59 + Pemetrexed; first compound 0.01 µM): 0.821; relative viability (Wnt-C59 + Pemetrexed; first compound 0.03162 µM): 0.874; relative viability (Wnt-C59 + Pemetrexed; first compound 0.1 µM): 0.76; relative viability (Wnt-C59 + Navitoclax; first compound 0.001 µM): 0.312; relative viability (Wnt-C59 + Navitoclax; first compound 0.01 µM): 0.315; relative viability (Wnt-C59 + Navitoclax; first compound 0.03162 µM): 0.265; relative viability (Wnt-C59 + Navitoclax; first compound 0.1 µM): 0.339; relative viability (Lapatinib + Alpelisib; first compound 0.02 µM): 0.861; relative viability (Lapatinib + Alpelisib; first compound 0.06325 µM): 0.933; relative viability (Lapatinib + Alpelisib; first compound 0.2 µM): 0.986; relative viability (Lapatinib + Alpelisib; first compound 0.6325 µM): 0.887; relative viability (Lapatinib + Alpelisib; first compound 2 µM): 1.09; relative viability (Lapatinib + Luminespib; first compound 0.02 µM): 0.887; relative viability (Lapatinib + Luminespib; first compound 0.06325 µM): 0.957; relative viability (Lapatinib + Luminespib; first compound 0.2 µM): 0.976; relative viability (Lapatinib + Luminespib; first compound 0.6325 µM): 0.901; relative viability (Lapatinib + Luminespib; first compound 2 µM): 1.02
